This note sets out measurements from patent US8377961B2, “Cyclic-alkylamine derivatives as inhibitors of the interaction between MDM2 and P53” (Janssen Pharmaceutica N.V., priority 2006, dated 2013).

Where two headings read alike, the source gives them in different places.

One experiment deals with p53 in A2780 cells. Put plainly: p53 ELISA (capacity to preserve p53 in A2780 cells). Type of experiment: cell-based. Particulars: lowest dose giving at least 140% of the value for p53 present in the control; A2780 cells treated with compound for 16 hours. As for the experimental part: The capacity of the compounds to preserve p53 in A2780 cells was measured with the p53 enzyme linked immunosorbent assay. The p53 assay is a “sandwich” enzyme immunoassay employing two polyclonal antibodies. A polyclonal antibody, specific for the p53 protein, has been immobilized onto the surface of the plastic wells. Any p53 present in the sample to be assayed will bind to the capture antibody. The biotinylated detector polyclonal antibody also recognizes p53 protein, and will bind to any p53, which has been retained by the capture antibody. The detector antibody, in turn, is bond by horseradish peroxidase-conjugated streptavidin. The horseradish peroxidase catalyses the conversion of the chromogenic substrate o-phenylene diamine, the intensity of which is proportional to the amount of p53 protein bond to the plate. The colored reaction product is quantified using a spectrophotometer. Quantitation is achieved by the construction of a standard curve using known concentrations of purified recombinant HIS tagged p53 protein (see example C.1.).
A2780 cells (ATCC) were cultivated in RPMI 1640 supplemented with 10% fetal calf serum (FCS), 2 mM L-glutamine and gentamycin at 37° C. in a humidified incubator with 5% CO2.
A2780 cells were seeded at 20.000 cells per well in a 96 well plate, cultured for 24 hours and treated with compound for 16 hours at 37° C. in a humidified incubator. After incubation, the cells were washed once with phosphate-buffered saline and 30 μl, per well, low salt RIPA buffer (20 mM tris, pH7.0, 0.5 mM EDTA, 1% Nonidet P40, 0.5% DOC, 0.05% SDS, 1 mM PMSF, 1 μg/ml aprotinin and 0.5 μ/ml leupeptin) was added. Plates were placed on ice for 30 minutes to complete the lysis. p53 protein was detected in de lysates by using the sandwich ELISA, described below.
High binding polystyrene EIA/RIA 96 well plates (Costar 9018) were coated with the capture antibody pAb1801 (Abcam ab28-100) at a concentration of 1 μg/ml in coating buffer (0.1 M NaHCO3 pH8.2), 50 μl per well. The antibody was allowed to adhere overnight at 4° C. Coated plates were washed once with phosphate-buffered saline (PBS)/0.05% Tween 20 and 300 μl of blocking buffer (PBS, 1% bovine serum albumins (BSA)) was added, for an incubation period of 2 hours at room temperature. Dilutions of purified recombinant HIS tagged p53 protein, ranging from 3-200 ng/ml, were made in blocking buffer and used as standards.
Plates were washed twice with PBS/0.05% Tween 20 and blocking buffer or standards were added at 80 μl/well. To the standards, 20 μl of lysis buffer was added. The samples were added to the other wells at 20 μl lysate/well. After an overnight incubation at 4° C., plates were washed twice with PBS/0.05% Tween 20. Aliquots of 100 μl secondary polyclonal antibody p53(FL-393) (Tebubio, sc-6243) at a concentration of 1 μg/ml in blocking buffer were added to each well and allowed to adhere for 2 hours at room temperature. Plates were washed three times with PBS/0.05% Tween 20. Detection antibody anti-rabbit HRP (sc-2004, Tebubio) at 0.04 μg/ml in PBS/1% BSA was added and incubated for 1 hour at room temperature. Plates were washed three times with PBS/0.05% Tween 20 and 100 μl of substrate buffer was added (substrate buffer was prepared shortly before use by adding 1 tablet of 10 mg o-phenylene diamine (OPD) from Sigma and 125 μl 3% H2O2 to 25 ml OPD buffer: 35 mM citric acid, 66 mM Na2HPO4, pH5.6). After 5 to 10 minutes, colour reaction was stopped by adding 50 μl stop buffer (1 M H2SO4) per well. The absorbance at dual wavelengths of 490/655 nm was measured using a Biorad micro plate reader and the results were then analyzed.
For each experiment, controls (containing no drug) and a blank incubation (containing no cells or drugs) were run in parallel. The blank value was subtracted from all control and sample values. For each sample, the value of p53 (in absorbance units) was expressed as the percentage of the value for p53 present in the control. […]
In general terms: ELISA stands for enzyme-linked immunosorbent assay.

The test system of a further experiment is U87MG cells. Put plainly: Proliferation assay (MTT-based) on U87MG tumour cells. Type of experiment: cell-based. As to conditions: Homo sapiens, U-87 MG, 96 h, 4 days of incubation. As for the experimental part:
Cellular activity of the compounds of formula (I) was determined on U87MG tumour cells using a colorimetric assay for cell toxicity or survival (see example C.2).
U87MG cells are human glioblastoma cells with wild type p53. In this cell line MDM2 tightly controls p53 expression.
All compounds tested were dissolved in DMSO and further dilutions were made in culture medium. Final DMSO concentrations never exceeded 0.1% (v/v) in cell proliferation assays. Controls contained U87MG cells and DMSO without compound and blanks contained DMSO but no cells.
U87MG cells were seeded in 96-well cell culture plates at 3000 cells/well/100 μl. 24 hours later, medium was changed and compound and/or solvent were added to a final volume of 200 μl. Following 4 days of incubation, medium was replaced by 200 μl fresh medium and cell growth was assessed using a MTT-based assay. Therefore, 25 μl of the MTT solution (0.5% MTT research grade from Serva in phosphate-buffered saline) was added to each well and the cells were further incubated for 2 hours at 37° C. The medium was then carefully aspirated and the blue MTT-formazan product was dissolved by adding to each well 25 μl 0.1M glycin and 100 μl DMSO. The plates were shaken for another 10 min on a micro plate shaker before reading absorbance at 540 nm by a Biorad micro plate reader.
Within an experiment, the results for each experimental condition are the mean of 3 replicate wells. For initial screening purposes, compounds were tested at a single fixed concentration of 10^−5 M. For active compounds, the experiments were repeated to establish full concentration-response curves. For each experiment, controls (containing no drug) and a blank incubation (containing no cells or drugs) were run in parallel. The blank value was subtracted from all control and sample values. For each sample, the mean value for cell growth (in absorbance units) was expressed as a percentage of the mean value for cell growth of the control. When appropriate, IC50-values (concentration of the drug, needed to reduce cell growth to 50% of the control) were computed using probit analysis for graded data (Finney, D. J., Probit Analyses, 2nd Ed. Chapter 10, Graded Responses, Cambridge University Press, Cambridge 1962). Herein the effects of test compounds are expressed as pIC50 (the negative log value of the IC50-value) (see table F-2).
In some of the experiments the proliferation assay was adapted for and used in 384-well culture plates (see table F-2).

[1] abbreviates: 96-well plates, read-out: cell proliferation pIC50 96 well (converted).

For the molecule `c1ccc2c(CCNc3ccc4c(c3)CCN4c3ccncc3)c[nH]c2c1` [Compound 1], in the experiment on p53 in A2780 cells, the A2780 p53-elisa LAD was 0.1 µM. The IC50 in the experiment with U87MG cells (setting [1]) is 0.01 µM.

Turning to `OCc1cc(N2CCc3cc(NCCc4c[nH]c5ccccc45)ccc32)ccn1` [Compound 4], in the experiment on p53 in A2780 cells, the A2780 p53-elisa LAD was found to be 0.3 µM. The IC50 with U87MG cells (setting [1]) is 0.158 µM.

On to `OC1CCc2c(N3CCc4cc(NCCc5c[nH]c6ccccc56)ccc43)ccnc21` (stereo not drawn) [Compound 5], for which, in the experiment on p53 in A2780 cells, the A2780 p53-elisa LAD is 0.3 µM. Also, in the experiment with U87MG cells (setting [1]), the IC50 was 0.295 µM.

`c1ccc2c(N3CCc4cc(NCCc5c[nH]c6ccccc56)ccc43)ccnc2c1` [Compound 2]: the A2780 p53-elisa LAD in the experiment with p53 in A2780 cells worked out at 1 µM. The IC50 in the experiment on U87MG cells (setting [1]) was 1.7 µM.

With `COC(=O)c1cc(N2CCc3cc(NCCc4c[nH]c5ccccc45)ccc32)ccn1` [Compound 3], the A2780 p53-elisa LAD with p53 in A2780 cells was found to be 1 µM. For the same molecule, the IC50 in the experiment on U87MG cells (setting [1]) was 4.17 µM.

With `CC1(C)CN(c2ccncc2)c2ccc(NCCc3c[nH]c4ccccc34)cc21` [Compound 6], the A2780 p53-elisa LAD in the experiment with p53 in A2780 cells came to 3 µM. In addition, the IC50 with U87MG cells (384-well culture plates, read-out: cell proliferation pIC50 384 well (converted)) was 0.295 µM.
